Measured values taken from US20230348495A1, “A COMPOUND HAVING INHIBITORY ACTIVITY AGAINST KRAS G12D MUTATION” (TAIHO PHARMACEUTICAL CO., LTD., priority 2019, published 2023).
pIC50: −log10 of the molar value.

Assays:
KRAS G12D = KRAS G12D (Homo sapiens (Human), UniProt P01116, G12D); test: Inhibitory activity on KRAS G12D nucleotide (GDP-GTP) exchange reaction in vitro (SOS1-dependent, BODIPY FL GDP); assay type: biochemical; conditions: BODIPY FL GDP-bound KRAS G12D, compound 25° C. 1 hour, then SOS1 and GMPPNP 30 minutes
From the text: Test Example 1: Evaluation of inhibitory activity of compounds on KRAS G12D nucleotide (GDP-GTP) exchange reaction in vitro
Recombinant KRAS G12D (conjugated N-terminus His6-tag, TEV protease cleavage site and KRAS G12D residues 1-169 (SEQ ID NO: 1), prepared by the method described as below) and cleaved recombinant SOS1 (residues 564-1049(SEQ ID NO: 2), prepared by the method as below) proteins were expressed in E. coli and purified by affinity chromatography.
To prepare the recombinant KRAS G12D, the codon-optimized DNA sequence for the recombinant KRAS G12D (conjugated N-terminus His6-tag, TEV protease cleavage site and KRAS G12D residues 1-169 (SEQ ID NO: 3))was synthesized by GeneArt Technology (Life Technologies, Carlsbad, CA, US). The construct was subcloned into the expression vector pET28a and transformed into Escherichia coli BL21 (DE3) strains (Novagen, Madison, WI, US).
The transformed strain was cultivated in 2 L Luria Broth medium with 25 μg/mL kanamycin at a temperature of 37° C. to a density of 0.6 (OD600), then induced for expression with […] IPTG and further cultivated for 4 h. The cell pellet was resuspended in ice-cold lysis buffer containing 50 mM Tris-HCl (pH 7.5), 200 mM NaCl, and 100 μM TCEP (tris(2-carboxyethyl)phosphine).
After sonication, the disrupted debris was removed by centrifugation. The supernatant was applied on to Ni-NTA affinity gels, and the recombinant human KRAS (G12D) eluted fraction was collected. The buffer of the collected fraction was exchanged to the buffer containing 50 mM Tris-HCl (pH 7.5), 200 mM NaCl, 10% Glycerol, and 5 mM DTT by PD-10 column (GE-Healthcare, Chicago, IL, US).
To prepare the cleaved recombinant SOS1, the codon optimized DNA sequences for the recombinant SOS1 (residues 564-1049 with a conjugated N-terminus His6-tag and TEV protease cleavage site (SEQ ID NO: 4)) was synthesized by GeneArt Technology (Life Technologies). The construct was subcloned into the expression vector pET28a and transformed into Escherichia coli BL21 (DE3) strains (Novagen, Madison, WI, USA).
The transformed strain was cultivated in 2 L Terrific Broth medium with 25 μg/mL kanamycin at a temperature of 37° C. to a density of 0.8 (OD600), then shifted to a temperature of 16° C., induced for expression with […] IPTG, and further cultivated for 16 h. The cell pellet was resuspended in ice-cold lysis buffer containing 50 mM Tris-HCl (pH 7.5), 200 mM NaCl, and 100 μM TCEP.
After sonication, the disrupted debris was removed by centrifugation. The supernatant was applied on to Ni-NTA affinity gels, and the recombinant human SOS1 eluted fraction was collected. Then, His6-tagged TEV protease was added to the collected fraction, dialyzed with the ice-cold lysis buffer for 16 h at a temperature of 4° C., and applied on to Ni-NTA affinity gels. The flow-through fraction containing the tag-cleavaged recombinant human SOS1 was collected. The buffer of the collected fraction was exchanged to the buffer containing 50 mM Tris-HCl (pH 7.5), 200 mM NaCl, 10% Glycerol, and 5 mM DTT by PD-10 column (GE-Healthcare).
To prepare BODIPY FL (fluorescent dye) GDP-bound KRAS G12D protein, 50 μM KRAS G12D protein was incubated with 0.5 mM BODIPY FL GDP in a loading buffer (20 mM Tris-HCl (pH 7.5), 50 mM NaCl, 1 mM DTT and 2.5 mM EDTA) for 1 hour on ice. After the incubation, MgCl2 was added to a final concentration of 10 mM, followed by incubation at room temperature for 30 minutes.
The mixture was allowed to pass through a NAP-5 column to remove free nucleotides and purified BODIPY FL GDP-bound KRAS G12D protein was used for compound evaluation.
For the measurement of the inhibitory activity of compounds on GDP-GTP exchange rate of recombinant KRAS G12D, BODIPY FL GDP-bound KRAS G12D protein was incubated with various concentrations of compound in a reaction buffer (20 mM Tris-HCl (pH 7.5), 100 mM NaCl, 1 mM MgCl2, 2 mM DTT, 0.1% Tween 20) at 25° C. for 1 hour. […]

[1] = system: KRAS-G12D mutant cell line (A-427); test: Growth inhibition activity on KRAS-G12D mutant cell line (A-427), CellTiter-Glo 3D; assay type: cell-based; conditions: Homo sapiens, 72 h, A-427 cells, 3-day culture with compound, read-out: A427 CTX IC50
Protocol: Test Example 2: A measurement test of growth inhibition activity on KRAS-G12D mutant cell line (A-427) (in vitro) A-427 cells (ATCC, Cat #: HTB-53), which are a KRAS-G12D mutant human lung cancer cell line, were suspended in a 10% fetal bovine serum-containing E-MEM medium (manufactured by Fujifilm Wako Pure Chemical Corporation). The cell suspension was seeded into each well of a 384-well U bottom microplate and cultured in an incubator containing 5% CO2 gas at 37° C. for 1 day.
The compound of the present invention was dissolved in DMSO, and the test compound was diluted with DMSO to give a concentration 500 times the final concentration. The solution of the test compound in DMSO was diluted with the medium used for suspending cells and added to each well of the cell-culture plate to give a DMSO final concentration of 0.2%, followed by culture in an incubator containing 5% CO2 gas at 37° C. for another 3 days. The cell count after a 3-day culture in the presence of the compound was measured using CellTiter-Glo 3D Reagent (manufactured by Promega Corporation).
All wells were added with CellTiter-Glo 3D Reagent and mixed for 10 minutes. 30 minutes after mixing, luminescence was measured by a plate reader. The growth inhibition rate was calculated from the following equation, and the concentration of the test compound at which 50% inhibition was achieved (IC50 (μM)) was determined.
Growth Inhibition Rate(%)=(C−T)/(C)×100
T: the emission intensity in a well into which a test compound was added.
C: the emission intensity in a well into which a test compound was not added.

Chain of KRAS G12D (P01116 other isoform, or with tags, fused parts or gaps G12D (already in the parent)): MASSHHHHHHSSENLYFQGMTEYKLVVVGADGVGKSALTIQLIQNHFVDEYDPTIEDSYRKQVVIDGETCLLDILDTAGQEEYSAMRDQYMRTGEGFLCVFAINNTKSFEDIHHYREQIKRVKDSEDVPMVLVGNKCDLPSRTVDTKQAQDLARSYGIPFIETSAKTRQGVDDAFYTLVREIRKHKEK

Compound	pIC50 (KRAS G12D)	pIC50 [1]
O=C(c1cc(O)cc2cccc(I)c12)N1Cc2nc(OCC3(CN4CC[C@@H](F)C4)CC3)nc(N3CC4CCC(C3)N4)c2C1 [Example 12, (4-(3,8-diazabicyclo[3.2.1]octan-3-yl)-2-((1-(((R)-3-fluoropyrrolidin-1-yl)methyl)cyclopropyl)methoxy)-5,7-dihydro-6H-pyrrolo[3,4-d]pyrimidin-6-yl) (3-hydroxy-8-iodonaphthalen-1-yl)methanone]	8.36	5.09
O=C(c1cc(O)cc2cccc(I)c12)N1Cc2nc(OCC3(CN4CCOCC4)CC3)nc(N3CC4CCC(C3)N4)c2C1 [Example 13, (4-(3,8-diazabicyclo[3.2.1]octan-3-yl)-2-((1-(morpholinomethyl)cyclopropyl)methoxy)-5,7-dihydro-6H-pyrrolo[3,4-d]pyrimidin-6-yl) (3-hydroxy-8-iodonaphthalen-1-yl)methanone]	8.26	5.07
CN(C)CC1(COc2nc(N3CC4CCC(C3)N4)c3cc(Cl)c(-c4cc(O)cc5ccccc45)c(F)c3n2)CC1 [Example 14, 4-(4-(3,8-diazabicyclo[3.2.1]octan-3-yl)-6-chloro-2-((1-((dimethylamino)methyl)cyclopropyl)methoxy)-8-fluoroquinazolin-7-yl)naphthalen-2-ol]	8.05	5.90
CN(C)CC1(COc2nc(N3CC4CCC(C3)N4)c3ccc(-c4cc(O)cc5ccccc45)c(F)c3n2)CC1 [Example 15, 4-(4-(3,8-diazabicyclo[3.2.1]octan-3-yl)-2-((1-((dimethylamino)methyl)cyclopropyl)methoxy)-8-fluoroquinazolin-7-yl) naphthalen-2-ol]	8.33	5.87
CN1CCC[C@H]1COc1nc(N2CC3CCC(C2)N3)c2ccc(-c3cc(O)cc4ccccc34)c(F)c2n1 [Example 16, 4-(4-(3,8-diazabicyclo[3.2.1]octan-3-yl)-8-fluoro-2-(((S)-1-methylpyrrolidin-2-yl)methoxy)quinazolin-7-yl) naphthalen-2-ol]	7.99	5.62
CCc1cc2c(N3CC4CCC(C3)N4)nc(OCC3(CN(C)C)CC3)nc2c(F)c1-c1cc(O)cc2ccccc12 [Example 19, 4-(4-(3,8-diazabicyclo[3.2.1]octan-3-yl)-2-((1-((dimethylamino)methyl)cyclopropyl)methoxy)-6-ethyl-8-fluoroquinazolin-7-yl)naphthalen-2-ol]	8.15	5.80
CN(C)CC1(COc2nc3c(c(N4C[C@@H]5CC[C@H]4CN5)n2)CCN(c2cc(O)cc4cccc(Br)c24)C3)CC1 [Example 20, 4-(4-((1S,4S)-2,5-diazabicyclo[2.2.2]octan-2-yl)-2-((1-((dimethylamino)methyl)cyclopropyl)methoxy)-5,8-dihydropyrido[3,4-d]pyrimidin-7(6H)-yl)-5-bromonaphthalen-2-ol]	8.52	5.71
CN(C)CC1(COc2nc3c(c(N4CC5CCC(C4)N5)n2)CCN(c2cc(O)cc4cccc(Br)c24)C3)CC1(F)F (stereo not shown) [Example 21, 4-(4-(3,8-diazabicyclo[3.2.1]octan-3-yl)-2-((1-((dimethylamino)methyl)-2,2-difluorocyclopropyl)methoxy)-5,8-dihydropyrido[3,4-d]pyrimidin-7(6H)-yl)-5-bromonaphthalen-2-ol]	8.01	6.27
CN(C)CC1(COc2nc3c(c(N4CC5CCC(C4)N5)n2)CCN(c2nc(N)cc4cccc(Br)c24)C3)CC1 [Example 22, 1-(4-(3,8-diazabicyclo[3.2.1]octan-3-yl)-2-((1-((dimethylamino)methyl)cyclopropyl)methoxy)-5,8-dihydropyrido[3,4-d]pyrimidin-7 (6H)-yl) -8-bromoisoquinolin-3-amine]	7.89	5.39
C#Cc1cccc2cc(O)cc(C3Cc4nc(OCC5(CN(C)C)CC5)nc(N5CC6CCC(C5)N6)c4CO3)c12 (stereo not shown) [Example 23, 4-(4-(3,8-diazabicyclo[3.2.1]octan-3-yl)-2-((1-((dimethylamino)methyl)cyclopropyl)methoxy)-7,8-dihydro-5H-pyrano[4,3-d]pyrimidin-7-yl)-5-ethynylnaphthalen-2-ol]	8.52	5.83
C#Cc1cccc2cccc(C3CCc4c(nc(OCC5(CN(C)C)CC5)nc4N4CC5CCC(C4)N5)C3)c12 (stereo not shown) [Example 24, 1-(1-(((4-(3,8-diazabicyclo[3.2.1]octan-3-yl)-7-(8-ethynylnaphthalen-1-yl)-5,6,7,8-tetrahydroquinazolin-2-yl)oxy)methyl)cyclopropyl)-N,N-dimethylmethanamine]	7.77	5.91
CN1C[C@H](F)C[C@H]1COc1nc2c(c(N3CC4CCC(C3)N4)n1)CCN(c1cc(O)cc3cccc(Br)c13)C2 [Example 27, 4-(4-(3,8-diazabicyclo[3.2.1]octan-3-yl)-2-(((2S,4R)-4-fluoro-1-methylpyrrolidin-2-yl)methoxy)-5,8-dihydropyrido[3,4-d]pyrimidin-7(6H)-yl)-5-bromonaphthalen-2-ol]	7.73	6.19
Oc1cc(N2CCc3c(nc(OCC4(CN5CCOCC5)CC4)nc3N3C[C@@H]4CC[C@H]3CN4)C2)c2c(Br)cccc2c1 [Example 28, 4-(4-((1S,4S)-2,5-diazabicyclo[2.2.2]octan-2-yl)-2-((1-(morpholinomethyl)cyclopropyl)methoxy)-5,8-dihydropyrido[3,4-d]pyrimidin-7(6H)-yl)-5-bromonaphthalen-2-ol]	8.44	6.09
CN(C)CC1(COc2nc3c(c(N4CC5CCC(C4)N5)n2)CCN(c2cccc4cccc(Br)c24)C3)CC1(F)F (stereo not shown) [Example 29, 1-(1-(((4-(3,8-diazabicyclo[3.2.1]octan-3-yl)-7-(8-bromonaphthalen-1-yl)-5,6,7,8-tetrahydropyrido[3,4-d]pyrimidin-2-yl)oxy)methyl)-2,2-difluorocyclopropyl)-N,N-dimethylmethanamine]	7.42	5.90
